Read-outs that look alike come from different tables or passages of the source.
Legend:
[1] = ^65Zn^2+ dot-blot binding to immobilized Aβ peptides (Scatchard / competition); conditions: for zinc binding (in words): dot-blot or blot of tryptic digest, ^65Zn^2+
Procedure: ^65Zn^2+ Binding Studies—Dissolved peptides (1.2 nMol, unless otherwise stated) were dot-blotted onto 0.2-μm polyvinylidene difluoride membrane (Pierce Chemical Co.), washed twice with chelating buffer (200 μl×100 mM NaCl, 20 mM Tris-HCl, 1 mM EDTA, pH 7.4), then five times with blocking buffer (200 μl×100 mM NaCl, 20 mM Tris-HCl, 1 mM MnCl2, pH 7.4), and then incubated (60 min, 20° C.) with ^65Zn (unless otherwise stated 130,000 cpm, […] ^65ZnCl2 in 200 μl of blocking buffer±competing metal ion chloride). The dot-blot was then washed with blocking buffer (5×200 μl), the dot excised, placed in a test tube, and assayed by γ-counting (11% efficiency). The equilibration volume for stoichiometry estimates was regarded as 6×200 μl. The 214 nm UV absorbance of the unbound flow-through was assayed to determine the total amount of peptide remaining bound onto the membrane. […] To alter the pH, the ^65Zn incubation was carried out in the presence of 100 mM buffer: MOPS (pH 6.5-7.0), MES (pH 5.0-6.0), acetate (pH 3.5-4.5). The dot-blot apparatus was washed with detergent and EDTA (50 mM) then rinsed and siliconized between use.
Aliquots of Aβ were incubated (60 min) with ^65Zn^2+ in the presence of varying concentrations of unlabeled Zn^2+ (0.01-50 μM total). Values shown are means±S.D., n≧3. […] (FIG. 1b) depicts specificity of the Zn^2+ binding site for various metals. Aβ was incubated (60 min) with ^65Zn^2+ (157 nM, 138,000 cpm) and competing unlabeled metal ions (50 μM total). […] Percent binding of total counts ^65Zn^2+/min added is corrected for the amounts (in nanomoles) of peptides adhering to the membrane. (FIG. 1d) depicts as for 1a, with Aβ1-28 peptide substituting for Aβ1-40. 157 nM ^65Zn (138,000 cpm) is used in this experiment to probe immobilized peptide (1.6 nmol). (FIG. 1e) depicts pH dependence of […] binding to Aβ1-40.

[2] = centrifugation studies; cited from earlier work
Aβ [3] = molecular target: T1, Aβ (Homo sapiens, UniProt P05067); experiment: G50 gel filtration chromatography of Aβ with metal ions or EDTA; conditions: for less total peptide eluted compared with EDTA profile / effect on Aβ recoverable by chromatography (in words): metal 25 μM
T1 construct: purchased Bachem; Sigma (also synthesized by the W. M. Keck Foundation laboratory, Yale); host or cells: chemical synthesis
T1 sequence (P05067 672-711 limits assumed): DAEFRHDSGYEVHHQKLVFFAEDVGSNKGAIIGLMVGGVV
Procedure: Aβ was stored in aliquots of 0.52 mg/ml in water at −20° C., then kept at 4° C. when thawed. Reagents were mixed without vortex mixing. The incubated Aβ was directly applied to a G50 SF (Pharmacia, Uppsala, Sweden) column (Bio-Rad Econo-Column, 30×0.7 cm) pre-equilibrated with metal salt solution or EDTA (50 μM) in TBS at 20° C. and eluted at 8 ml/h (Wiz peristaltic pump, Isco, Lincoln, Nebr.). Absorbance was measured at 254 and 214 nm (Type 6 optical unit, Isco). The amount of Aβ eluting at various peaks was estimated from the area under the curve. […] Because the sample eluted in a volume of approximately 15 ml, the average concentration of the peptide on the column was 0.8 μM.
To study the effects of protein blocking upon adsorption of Aβ to the chromatography column, a Sephadex G50 SF column which had been characterized previously for Aβ behavior was eluted with 3% bovine serum albumin (BSA) in TBS (50 ml) and equilibrated with non-BSA-containing buffer, subsequent to repeating the Aβ experiments.
The elution points of molecular mass standards and relative assignments of Aβ peak elutions are indicated. Mass standards were blue dextran (2×10^6 kDa, V0=void volume), BSA (66 kDa), carbonic anhydrase (29 kDa), cytochrome c (12.4 kDa), and aprotinin (6.5 kDa). The mass of Aβ is 4.3 kDa. […] Data for experiments performed in the presence of copper were taken from 214 nm readings and corrected for comparison.

Aβ1-40 = molecular target: T2, Aβ1-40 (Homo sapiens, UniProt P05067); experiment: Tryptic digestion of Aβ1-40 after incubation with Zn^2+; assay type: biochemical
T2 construct: Aβ1-40 (13.9 μg) was incubated with; purchased Bachem; Sigma (also synthesized by the W. M. Keck Foundation laboratory, Yale); host or cells: chemical synthesis
T2 sequence (P05067 672-711 limits assumed): as above
Procedure: Tryptic Digestion of Aβ-Aβ1-40 (13.9 μg) was incubated with Zn^2+ (12 μl in blocking buffer, 1 h, 37° C.) and then digested with trypsin (12 ng, 3 h, 37° C.). The reaction was stopped by adding SDS sample buffer containing phenylmethylsulfonyl fluoride (1 mM), boiling the samples (5 min), and applying the samples to Tris/Tricine gel electrophoresis and transfer. The blot was washed with EDTA, Coomassie-stained, incubated with ^65Zn^2+, individual bands were excised, assayed for ^65Zn^2+ binding, and N-terminal sequenced to confirm the identity of the digestion products.
The blot in 4a was incubated with ^65Zn^2+, the visible bands excised, and the bound counts for each band determined.

[4] = Size estimation of Aβ aggregates with filters of various pore sizes, ^65Zn tracer, EDTA wash; assay type: physicochemical
Procedure: FIGS. 7a, 7b, 7c and 7d. Size estimation of zinc-induced Aβ aggregates. […] By determining the amounts of Aβ1-40 and ^65Zn in the filtrate, the quantities retarded by the filters could be determined, and the stoichiometry of the zinc: Aβ assemblies estimated. (7d) Bar graph. […] The amounts of zinc-precipitated Aβ1-40 resolubilized in the filtrate fraction were determined by OD214, and expressed as a percentage of the amount originally retained by the respective filters. ^65Zn released into the filtrate was measured by γ-counting.
By determining the amounts of Aβ1-40 and ^65Zn in the filtrate, the quantities retarded by the filters could be determined, and the stoichiometry of the zinc: Aβ assemblies estimated. […] The amounts of zinc-precipitated Aβ1-40 resolubilized in the filtrate fraction were determined by OD214, and expressed as a percentage of the amount originally retained by the respective filters. ^65Zn released into the filtrate was measured by γ-counting.

[5] = Tinctorial amyloid formation (Congo Red, polarized light); assay type: physicochemical
Procedure: Zinc-induced tinctorial amyloid formation. […] Unbound dye was removed, the pellet washed with buffer 1 (100 mM NaCl, 20 mM Tris-HCl, pH 7.4) and mounted for microscopy.
Unbound dye was removed, the pellet washed with buffer 1 (100 mM NaCl, 20 mM Tris-HCl, pH 7.4) and mounted for microscopy.

[6] = neutral pH; cited from earlier work
[7] = Aβ binding to kaolin (aluminum silicate); assay type: physicochemical; conditions: metal 25 μM
Procedure: Aβ Binding to Kaolin (Aluminum Silicate)—Kaolin suspension was prepared in high performance liquid chromatography water (Fisher), defined, and adjusted to 50% (v/v). Aβ (40 μg) was incubated in siliconized reaction vessels with either kaolin or Sephadex G50 SF (10 μl×50% (v/v)) in Cu^2+, Zn^2+, or EDTA (100 μl in TBS, 5 min, room temperature). The suspension was then pelleted (1500×g, 3 min) and the supernatant removed and diluted 20-fold with water to bring the UV absorbance readings into the linear range. Samples were assayed at 214 nm before and after incubation with kaolin or Sephadex.
(FIG. 3a) depicts concentration (by 214 nm absorbance) of Aβ remaining in supernatant after incubation with 10 mg of G50 Sephadex. (FIG. 3b) depicts concentration (by 214 nm absorbance) of Aβ remaining in supernatant after incubation with 10 mg of kaolin, expressed as percent of the starting absorbance.

Aβ [8] = molecular target: T1, Aβ; experiment: SDS Tris/Tricine gel electrophoresis of Aβ incubated with Zn^2+; conditions: Zn^2+ 200 μM, 1-24 h, 20° C.
Procedure: To further test whether zinc induces irreversible precipitation of Aβ in the absence of kaolin, Aβ incubated with Zn^2+ (200 μM, 1-24 h, 20° C.) was subjected to SDS Tris/Tricine gel electrophoresis.

trypsin = experiment: Trypsin activity, Z-Arg-amido-4-methylcoumarin cleavage; assay type: biochemical
[9] = human, in vivo

## gln11: Aβ1-28 where residue 11 is glutamine (DAEFRHDSGYQVHHQKLVFFAEDVGSNK; Amyloid-beta protein 40; UniProt P05067 672-699, looked up, variant E11Q)
[1]
  zinc binding (in words): does not interfere with ^65Zn^2+ binding

## ^125I-Aβ1-40: human Aβ1-40 tracer iodinated on the tyrosine residue at position 10
[2]
  Zn^2+ concentration required to precipitate the peptide: 1 mM

## [Cu+2] [Cu^2+]
Aβ [3]; 25 μM total
  Aβ dimerization: dramatic increase in Aβ dimerization

## NC(CO)(CO)CO [Tris]
[1]; 150 mM Tris
  abolition of ^65Zn^2+ binding to Aβ: ≈ 50%
[1]; 500 mM Tris
  abolition of ^65Zn^2+ binding to Aβ: ≈ 95%

## 17-40: 2.1 kDa tryptic digestion product of Aβ1-40, post-secretase carboxyl-terminal product (LVFFAEDVGSNKGAIIGLMVGGVV; Amyloid-beta protein 40; UniProt P05067 688-711, looked up, fragment) [reference compound]
[1]
  zinc binding (in words): does not bind zinc
Aβ1-40; increasing zinc concentrations
  effect of zinc on the rate of tryptic digestion of the peptide: not inhibited by increasing zinc concentrations

## [Ag+2] [Ag^2+]
Aβ [3]
  less total peptide eluted compared with EDTA profile: 40%

## [Ca+2] [Ca^2+]
Aβ [3]
  less total peptide eluted compared with EDTA profile: 40%

## [Pb+2] [Pb^2+]
Aβ [3]
  effect on Aβ recoverable by chromatography (in words): most strongly promotes the elution of the monomeric peptide, abolishing high order polymers

## [Al+3] [Al^3+]
Aβ [3]
  effect on Aβ recoverable by chromatography (in words): partial effects on Aβ solubility comparable with 3 μM total Zn^2+

## Aβ1-28: Aβ fragment, residues 1-28
[1]; ^65Zn^2+ 74 nM, FIG. 1c
  ^65Zn^2+ binding compared with Aβ1-40: 30 % of Bmax

## 6-40: 3.6 kDa tryptic digestion product of Aβ1-40
[1]
  zinc binding (in words): binds zinc

## 25-35: Aβ fragment covering a region of the carboxyl terminus, residues 25-35 (GSNKGAIIGLM; Amyloid-beta protein 40; UniProt P05067 696-706, looked up, fragment)
[1]
  zinc binding (in words): unable to bind zinc

## [Ba+2] [Ba^2+]
Aβ [3]
  less total peptide eluted compared with EDTA profile: 40%

## rat Aβ1-40: rat/mouse species of Aβ1-40; Arg→Gly, Tyr→Phe and His→Arg at positions 5, 10 and 13 (DAEFGHDSGFEVRHQKLVFFAEDVGSNKGAIIGLMVGGVV; Amyloid-beta protein 40; UniProt P08592 672-711, looked up)
[4]; Zn^2+ 25 μM versus EDTA
  increase of >0.1μ particles following incubation with Zn^2+: 20%
  increase of >0.22μ particles following incubation with Zn^2+: 30%
[4]; Zn^2+ 25 μM, peptide […]
  proportion as >0.65μ particles: increased only slightly
[5]
  Zn^2+ concentration that induces amyloid by tinctorial criteria: ≥ 10 µM
[5]; EDTA 50 μM instead of Zn^2+
  Congo Red-stained material after incubation with EDTA: In neither case was Congo Red-stained material detected
[5]; Zn^2+ 25 μM, 30 min, 37° C.
  tinctorial amyloid formation (in words): significantly fewer and smaller particles, with minimal birefringence
EDTA, higher peptide concentrations
  peptide aggregated into >0.2μ particles: ≈ 15%
EDTA, peptide 0.8 μM
  peptide aggregated into >0.2μ particles: no detectable aggregation
Zn^2+ 25 μM, peptide 0.8 μM
  peptide aggregated into >0.2μ particles: no aggregation
Zn^2+ 25 μM, peptide 4 μM
  peptide aggregated into >0.2μ particles: 25%

## [Mg+2] [Mg^2+]
Aβ [3]
  less total peptide eluted compared with EDTA profile: 40%

## insulin: peptide whose zinc binding properties are well characterized
[6]
  stoichiometric ratio Zn^2+:insulin at which the peptide precipitates: > 0.33

## [Zn+2] [Zn^2+]
[1]; competing metal 50 μM total, ^65Zn^2+ 157 nM
  competition of unlabeled metal ions for ^65Zn^2+ label on Aβ: the only unlabeled metal ion tested that is capable of competing off the label
Aβ [3]; 25 μM total Zn^2+
  Aβ eluting from the column: < 20%
Aβ [3]; compared with EDTA profile
  lowest total concentration that decreases recoverable Aβ: 0.4 µM
[7]
  effect on kaolin-induced Aβ precipitation relative to EDTA: nearly half of the amount recovered from the EDTA incubation supernatant
Aβ [8]
  covalent or SDS-resistant polymerization of Aβ: does not induce covalent or SDS-resistant polymerization of Aβ
Aβ1-40; 200 μM Zn^2+
  inhibition of tryptic Aβ hydrolysis: complete inhibition of Aβ hydrolysis
trypsin; 200 μM
  inhibition of tryptic activity: 12%
trypsin; up to 100 μM in TBS
  effect on the activity of trypsin: negligible
Metal ions 3 μM, Aβ1-40 […]
  induction of aggregation of human Aβ1-40 by metal ions: the only one of several metal ions tested on an equimolar basis, including Al^3+, to induce significant aggregation of human Aβ1-40
[9]
  effect on cognition of age-matched control subjects: remained unaffected by the dose
  reversibility of changes: rapidly reversible following cessation of the four day supplementation
  time to acute decline in cognition: forty-eight
[9]; po
  drop in Mini-Mental State Examination scores: 31%

— patent US6365414B1, “Vitro system for determining formation of Aβ amyloid” (The General Hospital Corporation, priority 1994, dated 2002)
